Common to all, as to type: binding
Experiment [1] addresses T1, benzoylformate decarboxylase (BFDC) (Pseudomonas putida, UniProt P20906). Put plainly: X-ray crystal structure.
The target of experiment [2] is T1, benzoylformate decarboxylase (BFDC). The experiment can be described thus: circular dichroism titration at […] nm.
Experiment [3] has the same target. The experiment can be described thus: X-ray crystal structure. The source holds these as a separate data set.

T1 sequence (P20906 whole entry): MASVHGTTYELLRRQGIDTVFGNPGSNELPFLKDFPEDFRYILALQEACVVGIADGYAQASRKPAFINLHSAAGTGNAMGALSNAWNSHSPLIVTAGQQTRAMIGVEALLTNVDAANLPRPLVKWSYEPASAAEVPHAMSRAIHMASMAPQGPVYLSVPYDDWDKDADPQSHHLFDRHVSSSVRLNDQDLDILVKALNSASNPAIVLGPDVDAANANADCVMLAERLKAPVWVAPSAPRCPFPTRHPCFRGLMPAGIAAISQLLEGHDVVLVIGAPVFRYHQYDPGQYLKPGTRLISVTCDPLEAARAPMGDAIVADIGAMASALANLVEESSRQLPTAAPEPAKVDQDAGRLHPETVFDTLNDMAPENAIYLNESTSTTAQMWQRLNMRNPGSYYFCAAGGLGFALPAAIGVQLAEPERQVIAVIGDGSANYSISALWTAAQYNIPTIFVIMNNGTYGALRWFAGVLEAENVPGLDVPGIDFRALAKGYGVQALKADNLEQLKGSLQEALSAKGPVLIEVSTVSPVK

In turn, `COP(=O)(O)C(=O)c1ccccc1` [MBP, methyl benzoylphosphonate] registered a dissociation constant Kd in experiment [1] of 113 µM.

In turn, `COP(=O)(O)C(C)=O` [MAP, methyl acetylphosphonate] displayed an equilibrium dissociation constant (Kd) in experiment [2] of 5490 µM. Take `Cc1ncc(C[n+]2csc(CCOP(=O)([O-])OP(=O)(O)O)c2C)c(N)n1` [ThDP, thiamin diphosphate]: the “X-ray crystal structure (1.37 Å), seen as its adduct with MBP” value in experiment [3] is “the observed electron density is best fit by the covalent adduct between ThDP and MBP”.

The record behind these values is PMC2730839 (Biochemistry, 2009).
